Patent US7772271B2 (priority 2004, dated 2010)
Like-named read-outs stand apart in the source and are kept apart here.

How the values were obtained:
[1] = test system: PV IRES; test: cells; type: cell-based, poliovirus
[2] = test system: wild-type poliovirus; type: cell-based
[3] = Enterovirus C, HEK-293T, 20 h, read-out: WTPV mono luc IC50 (μM)
[4] = 1 μM compound, Hela cells infected with wild-type poliovirus at MOI 0.1, treated for one day, CPE score
[5] = 10 μM compound, Hela cells infected with wild-type poliovirus at MOI 0.1, treated for one day, CPE score
[6] = 100 μM compound, Hela cells infected with wild-type poliovirus at MOI 0.1, treated for one day, CPE score

Structure (SMILES)	IC50 ([1]; read-out: WTPV mono luc IC50) [µM]	WT-PV CPE (1 μM)* [2]	WT-PV CPE (10 μM)* [2]	WT-PV CPE (100 μM)* [2]	melting point [°C]	other results
COc1ccc(-n2cc(C#N)c3ccc(OC)cc32)cc1 [compound 4]	0.8	1	2	3		
CCn1cc(C#N)c2ccc(OC)cc21 [compound 5, 1-ethyl-6-methoxy-1H-indole-3-carbonitrile]						IC50 [1, 3]: 9 µM; WT-PV CPE (1 μM)* [2, 4]: 1; WT-PV CPE (10 μM)* [2, 5]: 2; WT-PV CPE (100 μM)* [2, 6]: 3
CCOc1ccc2c(C#N)cn(CC)c2c1 [compound 9, 6-ethoxy-1-ethyl-1H-indole-3-carbonitrile]						IC50 [1, 3]: > 100 µM; WT-PV CPE (1 μM)* [2, 4]: 2; WT-PV CPE (10 μM)* [2, 5]: 2; WT-PV CPE (100 μM)* [2, 6]: 3
CCn1cc(C#N)c2ccc(OC(C)C)cc21 [compound 10]	> 100	2	2	3		
CCn1c(-c2ccc(OC)cc2)c(C#N)c2ccc(OC)cc21 [compound 19]	15	1	2	3		
COc1ccc2c(C#N)c(C)n(-c3ccc4c(c3)OCO4)c2c1 [compound 24]	1.5	2	2	3		
Cc1csc(Nc2ccc(-c3c(C#N)c4ccc(Oc5ncccn5)cc4n3C3CCC3)cc2)n1 [compound 3180, 1-cyclobutyl-2-[4-(4-methyl-thiazol-2-ylamino)-phenyl]-6-(pyrimidin-2-yloxy)-1H-indole-3-carbonitrile]					223 to 225	
CC(C)OC(=O)Nc1ccc(-c2c(C#N)c3ccc(OC4CCS(=O)(=O)CC4)cc3n2C2CCC2)cc1 [compound 3182, {4-[3-cyano-1-cyclobutyl-6-(1,1-dioxo-hexahydro-1λ^6-thiopyran-4-yloxy)-1H-indol-2-yl]-phenyl}-carbamic acid isopropyl ester]					245 to 249	
Cc1cc(Nc2ccc(-c3c(C#N)c4ccc(Oc5ncccn5)cc4n3C3CCC3)cc2)n(C)n1 [compound 3285, 1-cyclobutyl-2-[4-(2,5-dimethyl-2H-pyrazol-3-ylamino)-phenyl]-6-(pyrimidin-2-yloxy)-1H-indole-3-carbonitrile]					236 to 238	
